Read-outs that look alike come from different tables or passages of the source.
Columns and labels:
[1] = system: 4TO7 tumors; assay: 4TO7 tumor growth in mice treated with Leg-NP-CDDO; type: in vivo, BALB/c mice; details: 8 i.v. injections
Procedure: In vivo tumor studies. 4TO7 (5×10^3) cells or MMTV-Neu (1×10^4) primary tumor cells were injected orthotopically into female BALB/c or FVB/NJ mice, respectively. NPs in 200 μl of PBS (about 1.36×10^13 particles) were administered i.v. and tumor dimensions measured using digital microcalipers. Tumor volume was calculated using the formula [(a^2×b)/2], where ‘a’ is the larger of two perpendicular diameters. For recurrence studies, primary tumors were surgically removed and mice re-challenged orthotopically in the contralateral mammary fat pad. Mice were vaccinated 3 times orally at 1 week intervals by gavage with attenuated salmonella typhimuirum (1×10^8 CFU per mouse) transduced with either pNeuTm (provided by Wei-Zen Wei, Karmanos Cancer Center, Detroit, Mich., USA) or empty vector.
Leg-NP-CDDO suppresses growth of murine breast tumors. To evaluate the in vivo effects of Leg-NP-CDDO, BALB/c mice were orthotopically challenged with about 5×10^3 4TO7 tumor cells and 4 days later, treated them with 8 i.v. injections of Leg-NP-CDDO or controls (FIG. 7A).

[2] = system: STAT-3
[3] = system: 4TO7 orthotopic tumors; assay: Doxorubicin biodistribution in tumor-bearing mice by fluorescence microscopy; type: in vivo; details: two i.v. injections, about 24 h after the last injection
Procedure: Doxorubicin was also loaded into RR-11a^− NPs (NP-Dox) as a control. […] Data represent means±s.e.m. The percentage of the drug uptake concentration was determined by comparing the MFI of RDZ-218, NP-Dox, and Free Dox-treated cells with that of serially diluted doxorubicin; see FIG. 2b. […] Data is shown relative to untreated cells (Control); n=3 wells per group. Data represent means±s.e.m. *p<0.05, **p<0.005. 4TO7 cells were injected into the inguinal mammary fat pad of female BALB/c mice. Tumors were allowed to establish for about 5 d, to a size of approximately 500 mm^3, after which mice were given two i.v. injections with RDZ-218, NP-Dox or Free Dox. Mice were sacrificed about 24 h after the last injection and tissues were isolated and immediately analyzed by fluorescence microscopy to detect distribution of doxorubicin; see FIG. 2d. Tissue sections were also stained with DAPI to visualize cell nuclei; n=2 mice per group; scale bars, 100 μm.

[4] = type: in vivo; details: 5 mg/kg doxorubicin i.v.
Procedure: The dose of doxorubicin for all groups was 5 mg/kg.
Female BALB/c mice were injected orthotopically with 4TO7 breast tumor cells. Tumors were allowed to establish and reach a size of approximately 500 mm^3 prior to treatment. […] Doxorubicin was administered at about 5 mg/kg in 200 μl of PBS for all groups; n=5 mice per group.

SMILES | primary tumor growth [1] | dose required for effective Stat3 inhibition [2] [nmol/L] | doxorubicin fluorescence in tumors [3] | number of mice surviving, out of a total of 5 ([4]; after treatment 0) | number of mice surviving, out of a total of 5 ([4]; after treatment 1, 24-hour intervals)
CC1(C)CC[C@]2(C(=O)n3ccnc3)CC[C@]3(C)[C@H](C(=O)C=C4[C@@]5(C)C=C(C#N)C(=O)C(C)(C)[C@@H]5CC[C@]43C)[C@@H]2C1 [CDDO-Im, 1-[2-cyano-3-,12-dioxooleana-1,9(11)-dien-28-oyl]imidazole] | markedly less effective | 100 |  |  | 
COc1cccc2c1C(=O)c1c(O)c3c(c(O)c1C2=O)C[C@@](O)(C(=O)CO)C[C@@H]3O[C@H]1C[C@H](N)[C@H](O)[C@H](C)O1 [Free Dox, doxorubicin] |  |  | strikingly reduced or punctate | 5/5 | 0/5

Source: patent US10335420B2, “Nanoparticle-based tumor-targeted drug delivery” (The Scripps Research Institute, priority 2010, dated 2019)
